Assay results as given in the supplement of paper PMC10307832.

The cell lines below were run with COC1=CC=C(C=C1)CN2C=CC3=C2C=C(C=C3)C(=O)NO + COc1cc2c(Oc3ccc(NC(=O)C4(C(=O)Nc5ccc(F)cc5)CC4)cc3F)ccnc2cc1OCCCN1CCOCC1 [Foretinib] (partner 0.25 µM) (assay: relative viability (nuclei count vs DMSO), 5 days (fraction); higher = more cells survive). Settings: first compound 0.08 µM.
In short: (§1)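 Lung cancer cell lines in 1536-well plates got either a single drug or a fixed anchor-drug dose together with five library-drug doses (not always all listed) in √10 steps, by pin tool, on the day after seeding. Nuclei were counted after 5 days, and relative viability is the treated-to-vehicle ratio of nuclei counts. Values are medians of duplicate plates.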
In the case of NCI-H1915, the relative viability is reported as 1.07.
For NCI-H23, the relative viability was 0.823.
CAL-12T was tested, and the relative viability was 0.918.
HCC-366 gave a relative viability of 0.433.

Same assay, conditions: first compound 0.253 µM
Cell Line NCI-H2347 has a relative viability of 0.527.
HARA was tested, and the relative viability was 0.868.
In the case of NCI-H1355, the relative viability is reported as 0.959.
Cell Line NCI-H1915 has a relative viability of 1.1.
With NCI-H23 the relative viability was 1.17.
Cell Line CAL-12T has a relative viability of 1.
For NCI-H1944, the relative viability was 0.874.
Cell Line HCC-366 has a relative viability of 0.994.
NCI-H322M gave a relative viability of 1.03.

Same assay, conditions: first compound 0.8 µM
NCI-H2347 was tested, and the relative viability was 0.991.
For HARA, the relative viability was 0.958.
NCI-H1355 was tested, and the relative viability was 0.928.
Cell Line NCI-H1915 has a relative viability of 1.15.
NCI-H23 showed a relative viability of 0.981.
In the case of CAL-12T, the relative viability is reported as 1.2.
NCI-H1944 gave a relative viability of 0.853.
With HCC-366 the relative viability was 0.89.
Work on NCI-H322M yielded a relative viability of 1.06.

Same assay, conditions: first compound 2.53 µM
NCI-H2347 showed a relative viability of 0.775.
In the case of HARA, the relative viability is reported as 0.826.
Cell Line NCI-H1355 has a relative viability of 1.02.
NCI-H1915 gave a relative viability of 1.07.
For NCI-H23, the relative viability was 0.955.
CAL-12T was tested, and the relative viability was 1.06.
NCI-H1944 was tested, and the relative viability was 0.887.
In the case of HCC-366, the relative viability is reported as 0.992.
With NCI-H322M the relative viability was 0.984.

Same assay, conditions: first compound 8 µM
For NCI-H2347, the relative viability was 0.575.
Cell Line HARA has a relative viability of 0.55.
Cell Line NCI-H1355 has a relative viability of 0.962.
NCI-H1915 was tested, and the relative viability was 1.09.
NCI-H23 showed a relative viability of 0.853.
CAL-12T gave a relative viability of 1.
In the case of NCI-H1944, the relative viability is reported as 0.912.
HCC-366 was tested, and the relative viability was 0.923.
Cell Line NCI-H322M has a relative viability of 0.882.

What follows are cell lines tested with COC1=CC=C(C=C1)CN2C=CC3=C2C=C(C=C3)C(=O)NO + Cc1cc(Nc2cc(N3CCN(C)CC3)nc(Sc3ccc(NC(=O)C4CC4)cc3)n2)n[nH]1 [Tozasertib] (partner 0.1 µM) in the same assay as above. Settings: first compound 0.08 µM.
In short: as §1
NCI-H2347 was tested, and the relative viability was 0.463.
NCI-H1915 was tested, and the relative viability was 0.259.
For NCI-H23, the relative viability was 0.292.
CAL-12T showed a relative viability of 0.293.
In the case of HCC-366, the relative viability is reported as 0.0975.

Same assay, conditions: first compound 0.253 µM
With NCI-H2347 the relative viability was 0.415.
In the case of HARA, the relative viability is reported as 0.109.
NCI-H1355 gave a relative viability of 0.548.
Cell Line NCI-H1915 has a relative viability of 0.431.
NCI-H23 was tested, and the relative viability was 0.352.
CAL-12T was tested, and the relative viability was 0.344.
NCI-H1944 showed a relative viability of 0.262.
Cell Line HCC-366 has a relative viability of 0.116.
Work on NCI-H322M yielded a relative viability of 0.497.

Same assay, conditions: first compound 0.8 µM
NCI-H2347 was tested, and the relative viability was 0.613.
In the case of HARA, the relative viability is reported as 0.114.
NCI-H1355 showed a relative viability of 0.585.
Cell Line NCI-H1915 has a relative viability of 0.422.
NCI-H23 gave a relative viability of 0.358.
CAL-12T was tested, and the relative viability was 0.362.
Work on NCI-H1944 yielded a relative viability of 0.261.
Cell Line HCC-366 has a relative viability of 0.124.
NCI-H322M showed a relative viability of 0.525.

Same assay, conditions: first compound 2.53 µM
NCI-H2347 showed a relative viability of 0.611.
Work on HARA yielded a relative viability of 0.128.
Cell Line NCI-H1355 has a relative viability of 0.531.
NCI-H1915 gave a relative viability of 0.355.
Cell Line NCI-H23 has a relative viability of 0.301.
With CAL-12T the relative viability was 0.328.
For NCI-H1944, the relative viability was 0.262.
In the case of HCC-366, the relative viability is reported as 0.354.
With NCI-H322M the relative viability was 0.485.

Same assay, conditions: first compound 8 µM
NCI-H2347 gave a relative viability of 0.503.
In the case of HARA, the relative viability is reported as 0.0964.
Work on NCI-H1355 yielded a relative viability of 0.515.
Cell Line NCI-H1915 has a relative viability of 0.401.
Cell Line NCI-H23 has a relative viability of 0.281.
In the case of CAL-12T, the relative viability is reported as 0.323.
With NCI-H1944 the relative viability was 0.234.
Cell Line HCC-366 has a relative viability of 0.0739.
Cell Line NCI-H322M has a relative viability of 0.439.

What follows are cell lines tested with COC1=CC=C(C=C1)CN2C=CC3=C2C=C(C=C3)C(=O)NO + NC(=O)Nc1cc(-c2cccc(F)c2)sc1C(=O)N[C@H]1CCCNC1 [AZD7762] (partner 0.2 µM) in the same assay as above. Settings: first compound 0.08 µM.
In short: as §1
NCI-H2347 showed a relative viability of 0.598.
For NCI-H1355, the relative viability was 0.392.
NCI-H1915 showed a relative viability of 0.494.
For NCI-H23, the relative viability was 0.257.
With CAL-12T the relative viability was 0.572.
Cell Line HCC-366 has a relative viability of 0.239.

Same assay, conditions: first compound 0.253 µM
Cell Line NCI-H2347 has a relative viability of 0.748.
For HARA, the relative viability was 0.588.
For NCI-H1355, the relative viability was 0.817.
Work on NCI-H1915 yielded a relative viability of 0.712.
In the case of NCI-H23, the relative viability is reported as 0.312.
For CAL-12T, the relative viability was 0.537.
In the case of NCI-H1944, the relative viability is reported as 0.516.
HCC-366 gave a relative viability of 0.265.

Same assay, conditions: first compound 0.8 µM
NCI-H2347 showed a relative viability of 0.967.
HARA gave a relative viability of 0.397.
In the case of NCI-H1355, the relative viability is reported as 0.745.
NCI-H1915 gave a relative viability of 0.676.
In the case of NCI-H23, the relative viability is reported as 0.32.
Cell Line CAL-12T has a relative viability of 0.647.
Work on NCI-H1944 yielded a relative viability of 0.481.
Cell Line HCC-366 has a relative viability of 0.302.
In the case of NCI-H322M, the relative viability is reported as 0.579.

Same assay, conditions: first compound 2.53 µM
NCI-H2347 was tested, and the relative viability was 0.732.
With HARA the relative viability was 0.251.
In the case of NCI-H1355, the relative viability is reported as 0.761.
With NCI-H1915 the relative viability was 0.705.
NCI-H23 showed a relative viability of 0.271.
With CAL-12T the relative viability was 0.675.
Work on NCI-H1944 yielded a relative viability of 0.475.
HCC-366 gave a relative viability of 0.235.
NCI-H322M showed a relative viability of 0.668.

Same assay, conditions: first compound 8 µM
NCI-H2347 was tested, and the relative viability was 0.677.
For HARA, the relative viability was 0.202.
Cell Line NCI-H1355 has a relative viability of 0.574.
Work on NCI-H1915 yielded a relative viability of 0.606.
With NCI-H23 the relative viability was 0.154.
Work on CAL-12T yielded a relative viability of 0.589.
NCI-H1944 was tested, and the relative viability was 0.428.
Cell Line HCC-366 has a relative viability of 0.203.
In the case of NCI-H322M, the relative viability is reported as 0.491.

What follows are cell lines tested with C[C@]1(c2nc3c(C(N)=O)cccc3[nH]2)CCCN1 [Veliparib] + Cc1nc(NC(=O)N2CCC[C@H]2C(N)=O)sc1-c1ccnc(C(C)(C)C(F)(F)F)c1 [Alpelisib] (partner 2 µM) in the same assay as above. Settings: first compound 0.02 µM.
In short: as §1
Work on NCI-H2347 yielded a relative viability of 1.01.
Cell Line HARA has a relative viability of 0.943.
For NCI-H1915, the relative viability was 1.03.
With NCI-H23 the relative viability was 0.662.
Work on CAL-12T yielded a relative viability of 1.23.
Work on NCI-H1944 yielded a relative viability of 0.792.
With HCC-366 the relative viability was 0.452.
NCI-H322M gave a relative viability of 0.763.

Same assay, conditions: first compound 0.06325 µM
With NCI-H2347 the relative viability was 0.946.
Work on HARA yielded a relative viability of 0.769.
NCI-H1355 showed a relative viability of 0.739.
NCI-H1915 was tested, and the relative viability was 1.02.
For NCI-H23, the relative viability was 0.623.
CAL-12T gave a relative viability of 1.05.
Cell Line NCI-H1944 has a relative viability of 0.849.
HCC-366 showed a relative viability of 0.234.
NCI-H322M was tested, and the relative viability was 0.719.

Same assay, conditions: first compound 0.2 µM
Work on NCI-H2347 yielded a relative viability of 1.01.
HARA showed a relative viability of 0.921.
Work on NCI-H1355 yielded a relative viability of 0.846.
NCI-H1915 showed a relative viability of 0.976.
In the case of NCI-H23, the relative viability is reported as 0.749.
CAL-12T gave a relative viability of 1.4.
NCI-H1944 gave a relative viability of 0.752.
With HCC-366 the relative viability was 0.365.
With NCI-H322M the relative viability was 0.78.

Same assay, conditions: first compound 0.6325 µM
NCI-H2347 gave a relative viability of 0.957.
HARA showed a relative viability of 0.827.
NCI-H1355 gave a relative viability of 0.692.
Work on NCI-H1915 yielded a relative viability of 0.898.
In the case of NCI-H23, the relative viability is reported as 0.564.
In the case of CAL-12T, the relative viability is reported as 1.12.
NCI-H1944 was tested, and the relative viability was 0.818.
HCC-366 gave a relative viability of 0.384.
Cell Line NCI-H322M has a relative viability of 0.7.

Same assay, conditions: first compound 2 µM
NCI-H2347 showed a relative viability of 1.02.
Cell Line HARA has a relative viability of 0.822.
Work on NCI-H1355 yielded a relative viability of 0.816.
NCI-H1915 was tested, and the relative viability was 0.926.
Cell Line NCI-H23 has a relative viability of 0.713.
For CAL-12T, the relative viability was 1.24.
NCI-H1944 was tested, and the relative viability was 0.756.
HCC-366 gave a relative viability of 0.411.
For NCI-H322M, the relative viability was 0.772.
